From patent US7906655B2, “Hepatitis C virus inhibitors” (Bristol-Myers Squibb Company, priority 2008, dated 2011)

Tested on: HCV 1b genotype
Test: HCV Replicon assay (HCV-neo replicon cells, wild-type)
Type: cell-based
Conditions: HCV 1b genotype replicon; class symbols
Method in brief: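 Inhibition was measured in HCV-neo (genotype 1b) replicon cells. Some assay versions used luciferase reporters.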

SMILES	EC50 [nM]
COC(=O)N[C@@H](C)C(=O)N1[C@@H]2C[C@@H]2C[C@H]1c1nc2cc(Oc3cccc(-c4ccc5[nH]c([C@@H]6C[C@H]7C[C@H]7N6C(=O)[C@H](C)NC(=O)OC)nc5c4)c3)ccc2[nH]1 [Example V2, methyl ((1S)-2-((1R,3S,5R)-3-(5-(3-((2-((1R,3S,5R)-2-(N-(methoxycarbonyl)-L-alanyl)-2-azabicyclo[3.1.0]hex-3-yl)-1H-benzimidazol-5-yl)oxy)phenyl)-1H-benzimidazol-2-yl)-2-azabicyclo[3.1.0]hex-2-yl)-1-methyl-2-oxoethyl) carbamate]	< 4.57
COC(=O)N[C@@H](C(=O)N1[C@@H]2C[C@@H]2C[C@H]1c1nc2cc(Oc3cccc(-c4ccc5[nH]c([C@@H]6C[C@H]7C[C@H]7N6C(=O)[C@H](NC(=O)OC)C(C)C)nc5c4)c3)ccc2[nH]1)C(C)C [Example V3, methyl ((1R)-1-(((1R,3S,5R)-3-(5-(3-(2-((1R,3S,5R)-2-((2R)-2-((methoxycarbonyl)amino)-3-methylbutanoyl)-2-azabicyclo[3.1.0]hex-3-yl)-1H-benzimidazol-5-yl)phenoxy)-1H-benzimidazol-2-yl)-2-azabicyclo[3.1.0]hex-2-yl)carbonyl)-2-methylpropyl) carbamate]	4.57 to 99
COC(=O)NC(C(=O)N1[C@@H]2C[C@@H]2C[C@H]1c1nc2cc(Oc3cccc(-c4ccc5[nH]c([C@@H]6C[C@H]7C[C@H]7N6C(=O)C(NC(=O)OC)c6ccccc6)nc5c4)c3)ccc2[nH]1)c1ccccc1 (stereo partly drawn) [Example V4, methyl (2-((1R,3S,5R)-3-(5-(3-((2-((1R,3S,5R)-2-(((methoxycarbonyl)amino)(phenyl)acetyl)-2-azabicyclo[3.1.0]hex-3-yl)-1H-benzimidazol-5-yl)oxy)phenyl)-1H-benzimidazol-2-yl)-2-azabicyclo[3.1.0]hex-2-yl)-2-oxo-1-phenylethyl) carbamate]	< 4.57
COC(=O)NC(C(=O)N1[C@@H]2C[C@@H]2C[C@H]1c1nc2cc(Oc3cccc(-c4ccc5[nH]c([C@@H]6C[C@H]7C[C@H]7N6C(=O)C(NC(=O)OC)c6ccccc6)nc5c4)c3)ccc2[nH]1)c1ccccc1 (stereo partly drawn) [Example V5, methyl (2-((1R,3S,5R)-3-(5-(3-((2-((1R,3S,5R)-2-(((methoxycarobnyl)amino)phenyl)acetyl)-2-azabicyclo[3.1.0]hex-3-yl)-1H-benzimidazol-5-yl)oxy)phenyl)-1H-benzimidazol-2-yl)-2-azabicyclo[3.1.0]hex-2-yl)-2-oxo-1-phenylethyl) carbamate]	< 4.57
COC(=O)N[C@@H](C(=O)N1[C@@H]2C[C@@H]2C[C@H]1c1nc2cc(-c3ccc(Oc4cccc5[nH]c([C@@H]6C[C@H]7C[C@H]7N6C(=O)[C@H](NC(=O)OC)C(C)C)nc45)cc3)ccc2[nH]1)C(C)C [Example V7, methyl ((1R)-1-(((1R,3S,5R)-3-(4-(4-(2-((1R,3S,5R)-2-((2R)-2-(methoxycarbonyl)amino)-3-methylbutanoyl)-2-azabicyclo[3.1.0]hex-3-yl)-1H-benzimidazol-5-yl)phenoxy)-1H-benzimidazol-2-yl)-2-azabicyclo[3.1.0]hex-2-yl)carbonyl)-2-methylpropyl) carbamate]	4.57 to 99
COC(=O)N[C@@H](C)C(=O)N1[C@@H]2C[C@@H]2C[C@H]1c1nc2cc(-c3ccc(Oc4cccc5[nH]c([C@@H]6C[C@H]7C[C@H]7N6C(=O)[C@H](C)NC(=O)OC)nc45)cc3)ccc2[nH]1 [Example V8, methyl ((1S)-2-((1R,3S,5R)-3-(5-(4-((2-((1R,3S,5R)-2-(N-(methoxycarbonyl)-L-alanyl)-2-azabicyclo[3.1.0]hex-3-yl)-1H-benzimidazol-4-yl)oxy)phenyl)-1H-benzimidazol-2-yl)-2-azabicyclo[3.1.0]hex-2-yl)-1-methyl-2-oxoethyl) carbamate]	< 4.57
COC(=O)NC(C(=O)N1[C@@H]2C[C@@H]2C[C@H]1c1nc2cc(-c3ccc(Oc4cccc5[nH]c([C@@H]6C[C@H]7C[C@H]7N6C(=O)C(NC(=O)OC)c6ccccc6)nc45)cc3)ccc2[nH]1)c1ccccc1 (stereo partly drawn) [Example V9, methyl (2-((1R,3S,5R)-3-(5-(4-((2-((1R,3S,5R)-2-(((methoxycarbonyl)amino)(phenyl)acetyl)-2-azabicyclo[3.1.0]hex-3-yl)-1H-benzimidazol-4-yl)oxy)phenyl)-1H-benzimidazol-2-yl)-2-azabicyclo[3.1.0]hex-2-yl)-2-oxo-1-phenylethyl) carbamate]	< 4.57

Same assay, conditions: Hepatitis C virus, HCV 1b genotype replicon; class symbols

SMILES	EC50 [nM]
CCC(=O)N1CCC[C@H]1c1nc2cc(C#Cc3ccc4nc([C@@H]5CCCN5C(C)=O)[nH]c4c3)ccc2[nH]1 [Example M54.29, 5-((2-((2S)-1-acetyl-2-pyrrolidinyl)-1H-benzimidazol-6-yl)ethynyl)-2-((2S)-1-propionyl-2-pyrrolidinyl)-1H-benzimidazole]	100 to 999
CC(=O)N1CCC[C@H]1c1nc2ccc(C#Cc3ccc4[nH]c([C@@H]5CCCN5C(=O)C5CC5)nc4c3)cc2[nH]1 [Example M54.30, 5-((2-((2S)-1-acetyl-2-pyrrolidinyl)-1H-benzimidazol-6-yl)ethynyl)-2-((2S)-1-(cyclopropyl-carbonyl)-2-pyrrolidinyl)-1H-benzimidazole]	100 to 999
CC(=O)N1CCC[C@H]1c1nc2ccc(C#Cc3ccc4[nH]c([C@@H]5CCCN5C(=O)C5CCC5)nc4c3)cc2[nH]1 [Example M54.31, 5-((2-((2S)-1-acetyl-2-pyrrolidinyl)-1H-benzimidazol-6-yl)ethynyl)-2-((2S)-1-(cyclobutyl-carbonyl)-2-pyrrolidinyl)-1H-benzimidazole]	4.57 to 99
CC(=O)N1CCC[C@H]1c1nc2ccc(C#Cc3ccc4[nH]c([C@@H]5CCCN5C(=O)CC5CC5)nc4c3)cc2[nH]1 [Example M54.32, 5-((2-((2S)-1-acetyl-2-pyrrolidinyl)-1H-benzimidazol-6-yl)ethynyl)-2-((2S)-1-(cyclopropyl-acetyl)-2-pyrrolidinyl)-1H-benzimidazole]	4.57 to 99
CC(=O)N1CCC[C@H]1c1nc2ccc(C#Cc3ccc4[nH]c([C@@H]5CCCN5C(=O)N5CCOCC5)nc4c3)cc2[nH]1 [Example M54.33, 5-((2-((2S)-1-acetyl-2-pyrrolidinyl)-1H-benzimidazol-6-yl)ethynyl)-2-((2S)-1-(4-morpholinyl-carbonyl)-2-pyrrolidinyl)-1H-benzimidazole]	4.57 to 99
CC(=O)N1CCC[C@H]1c1nc2ccc(C#Cc3ccc4[nH]c([C@@H]5CCCN5C(=O)N5CCN(C)CC5)nc4c3)cc2[nH]1 [Example M55, 5-((2-((2S)-1-acetyl-2-pyrrolidinyl)-1H-benzimidazol-6-yl)ethynyl)-2-((2S)-1-((4-methyl-1-piperazinyl)carbonyl)-2-pyrrolidinyl)-1H-benzimidazole]	100 to 999
CC(=O)N1CCC[C@H]1c1nc2cc(C#Cc3ccc4[nH]c([C@@H]5CCCN5C(=O)[C@@H](c5ccccc5)N(C)C)nc4c3)ccc2[nH]1 [Example M56, (1R)-2-((2S)-2-(5-((2-((2S)-1-acetyl-2-pyrrolidinyl)-1H-benzimidazol-5-yl)ethynyl)-1H-benzimidazol-2-yl)-1-pyrrolidinyl)-N,N-dimethyl-2-oxo-1-phenyl-ethanamine]	< 4.57
O=C(Cc1ccccc1)N1CCC[C@H]1c1nc2cc(C#CC#Cc3ccc4[nH]c([C@@H]5CCCN5C(=O)Cc5ccccc5)nc4c3)ccc2[nH]1 [Example M57, 5,5′-(1,3-butadiyne-1,4-diyl)bis(2-((2S)-1-(phenylacetyl)-2-pyrrolidinyl)-1H-benzimidazole)]	< 4.57
COC(=O)N[C@H](C(=O)N1CCC[C@H]1c1nc2cc(C#CC#Cc3ccc4[nH]c([C@@H]5CCCN5C(=O)[C@@H](NC(=O)OC)C(C)C)nc4c3)ccc2[nH]1)C(C)C [Example M57.1, Methyl((1S)-1-(((2S)-2-(5-(4-(2-((2S)-1-((2S)-2-((methoxycarbonyl)amino)-3-methylbutanoyl)-2-pyrrolidinyl)-1H-benzimidazol-5-yl)-1,3-butadiyn-1-yl)-1H-benzimidazol-2-yl)-1-pyrrolidinyl)carbonyl)-2-methylpropyl)carbamate]	< 4.57
COC(=O)N[C@H](C(=O)N1[C@@H]2C[C@@H]2C[C@H]1c1nc2cc(C#CC#Cc3ccc4[nH]c([C@@H]5C[C@H]6C[C@H]6N5C(=O)[C@@H](NC(=O)OC)C(C)C)nc4c3)ccc2[nH]1)C(C)C [Example M57.2, Methyl((1S)-1-(((1R,3S,5R)-3-(5-(4-(2-((1R,3S,5R)-2-((2S)-2-((methoxycarbonyl)amino)-3-methylbutanoyl)-2-azabicyclo[3.1.0]hex-3-yl)-1H-benzimidazol-5-yl)-1,3-butadiyn-1-yl)-1H-benzimidazol-2-yl)-2-azabicyclo[3.1.0]hex-2-yl)carbonyl)-2-methylpropyl)carbamate]	< 4.57
COC(=O)N[C@H](C(=O)N1[C@@H]2C[C@@H]2C[C@H]1c1nc2cc(Oc3cccc(-c4ccc5[nH]c([C@@H]6C[C@H]7C[C@H]7N6C(=O)[C@@H](NC(=O)OC)C(C)C)nc5c4)c3)ccc2[nH]1)C(C)C [Example V1, Methyl((1S)-1-(((1R,3S,5R)-3-(5-(3-(2-((1R,3S,5R)-2-((2S)-2-((methoxycarbonyl)amino)-3-methylbutanoyl)-2-azabicyclo[3.1.0]hex-3-yl)-1H-benzimidazol-5-yl)phenoxy)-1H-benzimidazol-2-yl)-2-azabicyclo[3.1.0]hex-2-yl)carbonyl)-2-methylpropyl)carbamate]	< 4.57
COC(=O)N[C@H](C(=O)N1[C@@H]2C[C@@H]2C[C@H]1c1nc2cc(-c3ccc(Oc4cccc5[nH]c([C@@H]6C[C@H]7C[C@H]7N6C(=O)[C@@H](NC(=O)OC)C(C)C)nc45)cc3)ccc2[nH]1)C(C)C [Example V6, Methyl((1S)-1-(((1R,3S,5R)-3-(4-(4-(2-((1R,3S,5R)-2-((2S)-2-((methoxycarbonyl)amino)-3-methylbutanoyl)-2-azabicyclo[3.1.0]hex-3-yl)-1H-benzimidazol-5-yl)phenoxy)-1H-benzimidazol-2-yl)-2-azabicyclo[3.1.0]hex-2-yl)carbonyl)-2-methylpropyl)carbamate]	< 4.57
